Laboratory results taken from patent US20160095865A1, “APPLICATION OF ENROFLOXACIN SALT IN PREPARATION OF ORAL PREPARATION FOR PIGS” (GUANGZHOU INSIGHTER BIOTECHNOLOGY CO., LTD., priority 2013, published 2016).
Where a name gives a salt, the structure may show the parent alone.

Assays:
[1] = system: duroc-landrace-yorkshire hybrid pigs; experiment: Influence of enrofloxacin base, sodium salt and hydrochloride on palatability of pig feed (Embodiment 2); assay type: in vivo; conditions: compared with blank control group
Procedure: Enrofloxacin base, enrofloxacin sodium and enrofloxacin hydrochloride were respectively added in feed in each group. All the test pigs were synchronously fasted for 12 h before testing. The test pigs in each group were respectively subjected to free feed intake of feed containing enrofloxacin in different forms after the 12 h fast. […] Feed consumption of different test groups was subjected to statistics and the influence of different forms of the enrofloxacin added in the feed on the feed intake of the pigs was evaluated. The pure feed which was not added with the enrofloxacin or the salt thereof was taken as control.

[2] = system: pathogenic escherichia coli SGD strain; experiment: Protection against escherichia coli artificial (challenge) infection in weaned piglets (Embodiment 9); assay type: in vivo, pigs; conditions: for Death rate: challenged control 60; for Incidence rate (%, calculated by diarrhea): challenged control 100
Procedure: The 33-day-old pigs were intramuscularly injected with pathogenic escherichia coli, the diarrhea and deaths of the pigs were observed, continuous observation was performed for one week, the onset and deaths were subjected to statistics, and the protection effects of the enrofloxacin in different forms against the pathogenic escherichia coli in the artificial infection were compared. Pure feed which was not added with the enrofloxacin in any form was taken as a control group, wherein one portion of pigs in the control group were intramuscularly injected with the pathogenic escherichia coli and was taken as the control group without administration but with challenge (the fifth group), and the remainder were not intramuscularly injected with the pathogenic escherichia coli and was taken as the control group without administration and without challenge (the sixth group).

sensitive bacteria = conditions: overwhelming majority of strains of sensitive bacteria; cited from earlier work
[3] = Pharmacokinetic research in pigs, plasma concentration by HPLC (Embodiment 8); assay type: in vivo; conditions: piglets
Procedure: Jugular venous blood collection was performed at 30 min, 1 h, 2 h, 4 h, 8 h, 12 h and 24 h after administration. Plasma was separated, the concentration of the enrofloxacin in the plasma in the different test pigs after administration was determined by high-performance liquid chromatography respectively, and whether the difference in the concentration of the enrofloxacin in the plasma in each test group after administration was significant or not and whether the elimination rule of the enrofloxacin in blood was consistent or not was subjected to statistical analysis.

[4] = 100 ppm equivalent fed twice daily through a gastric tube according to feed intake, challenge 2.0 ×10^7 CFU/pig
[5] = 100 ppm in feed, challenge 2.0 ×10^7 CFU/pig i.m., one week

Q: Which “Decline in feed intake” value ([1]; 5 ppm in feed) does the source give for CCN1CCN(c2cc3c(cc2F)c(=O)c(C(=O)O)cn3C2CC2)CC1 [enrofloxacin base, enrofloxacin] here?
A: Its value is 47.2%.

Q: What about the “Decline in feed intake” value ([1]; 25 ppm in feed) of the same compound?
A: The value was 74.2%.

Q: What about the “Decline in feed intake” value ([1]; 100 ppm in feed) of the same compound?
A: Its value is 93.3%.

Q: What about the Death rate [2, 4] of the same compound?
A: The Death rate was 0%.

Q: And the “Incidence rate (%, calculated by diarrhea)” value [2, 4]?
A: Its value is 0%.

Q: What about the MIC (sensitive bacteria) of the same compound?
A: The MIC was “lower than 1 ug/ml”.

Q: Which “Plasma concentration (total of enrofloxacin and ciprofloxacin)” value (“Plasma concentration” below) ([3]; 30 min after 10 mg/kg body weight by gastric tube) does the source give for CCN1CCN(c2cc3c(cc2F)c(=O)c(C(=O)[O-])cn3C2CC2)CC1.CCN1CCN(c2cc3c(cc2F)c(=O)c(C(=O)[O-])cn3C2CC2)CC1.[Cu+2] [enrofloxacin copper] here?
A: Its value is 1.417 ± 0.169^A ug/ml.

Q: And the “Plasma concentration” value ([3]; 1 h after 10 mg/kg body weight by gastric tube)?
A: The value was 2.121 ± 0.198^B ug/ml.

Q: What about the “Plasma concentration” value ([3]; 2 h after 10 mg/kg body weight by gastric tube) of the same compound?
A: Its value is 5.187 ± 0.558^C ug/ml.

Q: And the “Plasma concentration” value ([3]; 4 h after 10 mg/kg body weight by gastric tube)?
A: The value was 5.465 ± 0.529^D ug/ml.

Q: And the “Plasma concentration” value ([3]; 8 h after 10 mg/kg body weight by gastric tube)?
A: Its value is 2.986 ± 0.234^E ug/ml.

Q: And the “Plasma concentration” value ([3]; 12 h after 10 mg/kg body weight by gastric tube)?
A: The value was 1.785 ± 0.215^F ug/ml.

Q: And the “Plasma concentration” value ([3]; 24 h after 10 mg/kg body weight by gastric tube)?
A: Its value is 0.294 ± 0.044^G ug/ml.

Q: And the Death rate [2, 5]?
A: The Death rate was 0%.

Q: And the “Incidence rate (%, calculated by diarrhea)” value [2, 5]?
A: Its value is 0%.

Q: For CCN1CCN(c2cc3c(cc2F)c(=O)c(C(=O)O)cn3C2CC2)CC1 [enrofloxacin hydrochloride], which “Decline in feed intake” value ([1]; 5 ppm in feed, hydrochloride) is on record?
A: The value was 49.5%.

Q: What about the “Decline in feed intake” value ([1]; 25 ppm in feed, hydrochloride) of the same compound?
A: Its value is 73.4%.

Q: And the “Decline in feed intake” value ([1]; 100 ppm in feed, hydrochloride)?
A: Its value is 93.7%.

Q: With CCN1CCN(c2cc3c(cc2F)c(=O)c(C(=O)[O-])cn3C2CC2)CC1.[Ag+] [enrofloxacin silver] as the compound, how does the Death rate [2, 5] read?
A: Its Death rate is 0%.

Q: And the “Incidence rate (%, calculated by diarrhea)” value [2, 5]?
A: Its value is 0%.

Q: What does the source list for CCN1CCN(c2cc3c(cc2F)c(=O)c(C(=O)O)cn3C2CC2)CC1 [enrofloxacin sodium]?
A: Decline in feed intake ([1]; 5 ppm in feed): 50.8%; Decline in feed intake ([1]; 25 ppm in feed): 73.1%; Decline in feed intake ([1]; 100 ppm in feed): 94.1%

Q: For CCN1CCN(c2cc3c(cc2F)c(=O)c(C(=O)[O-])cn3C2CC2)CC1.CCN1CCN(c2cc3c(cc2F)c(=O)c(C(=O)[O-])cn3C2CC2)CC1.[Zn+2] [enrofloxacin zinc], which Death rate [2, 5] is on record?
A: Its Death rate is 0%.

Q: And the “Incidence rate (%, calculated by diarrhea)” value [2, 5]?
A: Its value is 0%.
